How the values were obtained:
[1] = target: T1, Replicase polyprotein 1ab (Severe acute respiratory syndrome coronavirus 2, UniProt P0DTD1); assay: Inhibition of SARS-CoV-2 Main protease (3264 to 3569 residues) expressed in Escherichia coli BL21-Gold (DE3) using Dabcyl-KTSAVLQSGFRKM-E(Edans)-NH2 as substrate by FRET assay
[2] = target: T1, Replicase polyprotein 1ab; assay: Inhibition of SARS-CoV-2 3CL protease expressed in Escherichia coli using Dabcyl-KTSAVLQSGFRKM-E(Edans)-NH2 as substrate preincubated for 30 mins followed by substrate addition and measured after 3 hrs

| SMILES | IC50 [1] | IC50 [2] |
| --- | --- | --- |
| CC(C)(C)OC(=O)Nc1ccn([C@@H](CC2CC2)C(=O)N[C@@H](C[C@@H]2CCNC2=O)C(=O)C(=O)NCc2ccccc2)c(=O)c1 | 670 nM |  |
| Cn1nc(-c2ccc(C(F)(F)F)cc2)nc2c(=O)n(C)c(=O)cc1-2 |  | 260 nM |
